Earlier results on one compound are cited in US7799540B2, “Method of producing lycopene through the fermentation of selected strains of Blackeslea trispora, formulations and uses of the lycopene thus obtained” (Vitatene, S.A., priority 2001, dated 2010).

The conditions of the data set: rats; Matos H.R. et al. (2001).

For the compound `CC(C)=CCC/C(C)=C/C=C/C(C)=C/C=C/C(C)=C/C=C/C=C(C)/C=C/C=C(C)/C=C/C=C(\C)CCC=C(C)C` [lycopene, Lycopene], the “effect on harmful effect of ferric nitriloacetate on DNA” value is reported as “inhibits the harmful effect of ferric nitriloacetate on DNA” and the “effect on necrosis of the liver” value is “prevents necrosis of the liver”.
